Results published in patent US20070015833A1 (priority 2005, published 2007).

Test: small volume in vitro release in 50 ml 0.1N HCl
Type: physicochemical
Settings: 37° C., 150 rpm
Description: The formulations were tested for their small volume in vitro release characteristics in 50 ml 0.1N HCl at 37° C. and 150 rpm using the following procedure: III. Instrumentation (or Equivalent) a. Automated Dissolution System comprising of: Hanson SR8 Plus Test Station Hanson Auto Plus Maximiser System Controller Hanson Auto Plus MultiFill Fraction Collector b. HPLC System comprising of: pump—Merck Hitachi L-7100 autoinjector—Merck Hitachi L-7200 column oven—Merck Hitachi L-7300 detector—Merck Hitachi L-7400 interface and integration software—Merck Hitachi D-7000
0.1N HCl Preparation Dilute 8.5 ml HCl 37% to 1 liter with purified water. Procedure Place one weighed capsule in each vessel containing 0.1N HCl and immediately operate the apparatus for 30 min. Unless otherwise specified, 3 ml samples are withdrawn from each vessel and immediately filtered through PTFE membranes at 15 and 30 min.
The small volume was chosen as a model of the conditions in a fasted stomach.

dissolution (in words): no dissolution at all | % dissolved 15 min (15 min): 0% | % dissolved 30 min (30 min): 0%
SMILES: CC(C)OC(=O)C(C)(C)Oc1ccc(C(=O)c2ccc(Cl)cc2)cc1 [Micronized Fenofibrate]
